In the supplement of paper PMC10307832:

What was measured:
Assay in all cases: relative viability (nuclei count vs DMSO), 5 days (fraction); higher = more cells survive
XMD13-2 + Palbociclib = compound: C1CC1C(=O)NC2=NNC3=C2C=CC(=C3)C4=CC(=CC=C4)C(=O)NC5CC5 [XMD13-2] + CC(=O)c1c(C)c2cnc(Nc3ccc(N4CCNCC4)cn3)nc2n(C2CCCC2)c1=O [Palbociclib] (partner 0.5 µM)
Summary of the method: (§1)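 Relative viability equals treated-well nuclei counts divided by vehicle-well nuclei counts. Counts came from 4× images of lung cancer cell lines grown in 1536-well plates for 5 days after pin-tool dosing on the day after seeding. Dosing used one drug alone or a fixed anchor-drug dose plus five library-drug doses (not always all listed) in √10 steps, and values are medians of duplicate plates.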

XMD13-2 + Luminespib = compound: C1CC1C(=O)NC2=NNC3=C2C=CC(=C3)C4=CC(=CC=C4)C(=O)NC5CC5 [XMD13-2] + CCNC(=O)c1noc(-c2cc(C(C)C)c(O)cc2O)c1-c1ccc(CN2CCOCC2)cc1 [Luminespib] (partner 0.01 µM)
Summary of the method: as §1

ALW-II-49-7 + Dasatinib = compound: Cc1ccc(C(=O)Nc2cccc(C(F)(F)F)c2)cc1Nc1cncc(C(N)=O)c1 [ALW-II-49-7] + Cc1nc(Nc2ncc(C(=O)Nc3c(C)cccc3Cl)s2)cc(N2CCN(CCO)CC2)n1 [Dasatinib] (partner 0.075 µM)
Summary of the method: as §1

Dasatinib + Pemetrexed = compound: Cc1nc(Nc2ncc(C(=O)Nc3c(C)cccc3Cl)s2)cc(N2CCN(CCO)CC2)n1 [Dasatinib] + Nc1nc2[nH]cc(CCc3ccc(C(=O)N[C@@H](CCC(=O)O)C(=O)O)cc3)c2c(=O)[nH]1 [Pemetrexed] (partner 0.2 µM)
Summary of the method: as §1

| Cell Line | relative viability (XMD13-2 + Palbociclib; first compound 0.05 µM) | relative viability (XMD13-2 + Palbociclib; first compound 0.1581 µM) | relative viability (XMD13-2 + Palbociclib; first compound 0.5 µM) | relative viability (XMD13-2 + Palbociclib; first compound 1.581 µM) | relative viability (XMD13-2 + Palbociclib; first compound 5 µM) | relative viability (XMD13-2 + Luminespib; first compound 0.05 µM) | relative viability (XMD13-2 + Luminespib; first compound 0.1581 µM) | relative viability (XMD13-2 + Luminespib; first compound 0.5 µM) | relative viability (XMD13-2 + Luminespib; first compound 1.581 µM) | relative viability (XMD13-2 + Luminespib; first compound 5 µM) | relative viability (ALW-II-49-7 + Dasatinib; first compound 0.08 µM) | relative viability (ALW-II-49-7 + Dasatinib; first compound 0.253 µM) | relative viability (ALW-II-49-7 + Dasatinib; first compound 0.8 µM) | relative viability (ALW-II-49-7 + Dasatinib; first compound 2.53 µM) | relative viability (ALW-II-49-7 + Dasatinib; first compound 8 µM) | relative viability (Dasatinib + Pemetrexed; first compound 0.005 µM) | relative viability (Dasatinib + Pemetrexed; first compound 0.01581 µM) | relative viability (Dasatinib + Pemetrexed; first compound 0.05 µM) | relative viability (Dasatinib + Pemetrexed; first compound 0.1581 µM) | relative viability (Dasatinib + Pemetrexed; first compound 0.5 µM) |
| --- | --- | --- | --- | --- | --- | --- | --- | --- | --- | --- | --- | --- | --- | --- | --- | --- | --- | --- | --- | --- |
| HCC-827 | 0.512 | 0.462 | 0.439 | 0.459 | 0.377 | 0.809 | 0.424 | 0.725 | 0.576 | 0.661 | 0.326 | 0.331 | 0.294 | 0.232 | 0.239 | 0.253 | 0.251 | 0.256 | 0.239 | 0.133 |
| HOP-62 | 0.464 | 0.485 | 0.448 | 0.413 | 0.348 | 1 | 0.878 | 0.925 | 0.881 | 0.938 | 0.635 | 0.617 | 0.56 | 0.616 | 0.495 | 0.284 | 0.279 | 0.352 | 0.326 | 0.274 |
| LC-2-ad | 0.504 | 0.477 | 0.538 | 0.486 | 0.47 | 1.16 | 1.06 | 0.973 | 0.992 | 0.952 | 0.481 | 0.412 | 0.501 | 0.7 | 0.387 | 0.262 | 0.253 | 0.256 | 0.237 | 0.214 |
| LCLC-97TM1 | 0.217 | 0.284 | 0.229 | 0.219 | 0.182 | 0.883 | 0.743 | 0.811 | 0.667 | 0.677 | 0.808 | 0.944 | 0.808 | 0.88 | 0.851 | 0.195 | 0.184 | 0.177 | 0.182 | 0.143 |
| LCLC-103H | 0.485 | 0.44 | 0.466 | 0.477 | 0.481 | 0.958 | 0.943 | 0.998 | 1.07 | 0.739 | 0.392 | 0.429 | 0.393 | 0.419 | 0.411 | 0.517 | 0.437 | 0.481 | 0.461 | 0.328 |
| LK-2 | 0.666 | 0.557 | 0.698 | 0.776 | 0.593 | 0.181 | 0.17 | 0.179 | 0.205 | 0.172 |  | 0.271 | 0.252 | 0.31 | 0.336 | 0.286 |  | 0.201 | 0.128 | 0.202 |
| LOU-NH91 | 0.541 | 0.554 | 0.561 | 0.475 | 0.507 | 0.355 | 0.318 | 0.374 | 0.347 | 0.318 | 0.544 | 0.588 | 0.521 | 0.504 | 0.414 | 0.414 | 0.389 | 0.407 | 0.377 | 0.319 |
| LU99A | 0.402 | 0.38 | 0.391 | 0.402 | 0.27 | 0.262 | 0.295 | 0.254 | 0.178 | 0.267 | 0.62 | 0.486 | 0.576 | 0.498 | 0.75 | 0.191 | 0.158 | 0.192 | 0.176 | 0.16 |
